Results published in patent publication US20230085307A1, “PYRIDAZINONE COMPOUND AND HERBICIDE” (NISSAN CHEMICAL CORPORATION, priority 2019, published 2023).

Experiments:
Chinese sprangletop = experiment: Test Example 3: herbicidal effect by foliage application, Wagner pot (Table 18, symbol D); type: in vivo, chinese sprangletop (Leptochloa chinensis); details: amount of applied herbicide 320 g/ha
How it was run: (§1)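 Plants were sown in alluvial soil held under 0.1–0.5 cm standing water and grown 14 days in a greenhouse at 25–30 °C. An emulsifiable formulation, water-diluted to the set dose, was then sprayed onto the foliage, and effects were scored three weeks later using previously defined criteria.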

lambsquarters [1] = experiment: Test Example 4: herbicidal effect by soil treatment (Table 19, symbol O); type: in vivo, lambsquarters (Chenopodium album); details: amount of applied herbicide 320 g/ha
How it was run: (§2)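 Applied as a water-diluted emulsion, the compound was sprayed onto soil covering newly sown seeds. Evaluation came three weeks after application, in a greenhouse held at 25° C. to 30° C.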

barnyard grass [2] = experiment: Test Example 3: herbicidal effect by foliage application, Wagner pot (Table 18, symbol H); type: in vivo, barnyard grass (Echinochloa crus-galli); details: amount of applied herbicide 320 g/ha
How it was run: as §1

rice flat sedge = experiment: Test Example 3: herbicidal effect by foliage application, Wagner pot (Table 18, symbol E); type: in vivo, rice flat sedge (Cyperus iria); details: amount of applied herbicide 320 g/ha
How it was run: as §1

Italian ryegrass [3] = experiment: Test Example 5: herbicidal effect by foliage application, plastic box (Table 20, symbol K); type: in vivo, Italian ryegrass (Lolium multiflorum); details: foliage application, 320 g/ha, evaluated three weeks after application
How it was run: (§3)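 Sow seeds spot-wise in sterilized diluvial soil; cover with ~1.5 cm soil. Grow 14 days in greenhouse, 25° C. to 30° C. Spray foliage with emulsion diluted to predetermined amount. Rate effect after 3 weeks.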

blackgrass [4] = experiment: Test Example 5: herbicidal effect by foliage application, plastic box (Table 20, symbol J); type: in vivo, blackgrass (Alopecurus myosuroides); details: foliage application, 320 g/ha, evaluated three weeks after application
How it was run: as §3

chickweed [5] = experiment: Test Example 4: herbicidal effect by soil treatment (Table 19, symbol P); type: in vivo, common chickweed (Stellaria media); details: amount of applied herbicide 320 g/ha
How it was run: as §2

redroot pigweed [6] = experiment: Test Example 5: herbicidal effect by foliage application, plastic box (Table 20, symbol N); type: in vivo, redroot pigweed (Amaranthus retroflexus); details: foliage application, 320 g/ha, evaluated three weeks after application
How it was run: as §3

late watergrass = experiment: Test Example 1: herbicidal activity, application before weed generation under submerged conditions (Table 16, symbol A); type: in vivo, late watergrass (Echinochloa oryzicola); details: 320 g/ha applied herbicide
How it was run: (§4)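 Emulsion formulation, water-diluted to set dose, was put onto the flooded surface (4 cm depth, alluvial soil) the same day weeds were sown and 2.5-leaf rice transplanted. After 3 weeks at 25-30 °C under glass, each species was rated 0 (≤5% kill) to 5 (≥90% kill).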

velvetleaf [7] = experiment: Test Example 5: herbicidal effect by foliage application, plastic box (Table 20, symbol M); type: in vivo, velvetleaf (Abutilon theophrasti); details: foliage application, 320 g/ha, evaluated three weeks after application
How it was run: as §3

southern crabgrass [8] = experiment: Test Example 4: herbicidal effect by soil treatment (Table 19, symbol F); type: in vivo, southern crabgrass (Digitaria ciliaris); details: amount of applied herbicide 320 g/ha
How it was run: as §2

lambsquarters [9] = experiment: Test Example 5: herbicidal effect by foliage application, plastic box (Table 20, symbol O); type: in vivo, lambsquarters (Chenopodium album); details: foliage application, 320 g/ha, evaluated three weeks after application
How it was run: as §3

Italian ryegrass [10] = experiment: Test Example 4: herbicidal effect by soil treatment (Table 19, symbol K); type: in vivo, Italian ryegrass (Lolium multiflorum); details: amount of applied herbicide 320 g/ha
How it was run: as §2

green foxtail [11] = experiment: Test Example 5: herbicidal effect by foliage application, plastic box (Table 20, symbol G); type: in vivo, green foxtail (Setaria viridis); details: foliage application, 320 g/ha, evaluated three weeks after application
How it was run: as §3

persian speedwell [12] = experiment: Test Example 5: herbicidal effect by foliage application, plastic box (Table 20, symbol R); type: in vivo, Persian speedwell (Veronica persica); details: foliage application, 320 g/ha, evaluated three weeks after application
How it was run: as §3

southern crabgrass [13] = experiment: Test Example 5: herbicidal effect by foliage application, plastic box (Table 20, symbol F); type: in vivo, southern crabgrass (Digitaria ciliaris); details: foliage application, 320 g/ha, evaluated three weeks after application
How it was run: as §3

persian speedwell [14] = experiment: Test Example 4: herbicidal effect by soil treatment (Table 19, symbol R); type: in vivo, Persian speedwell (Veronica persica); details: amount of applied herbicide 320 g/ha
How it was run: as §2

velvetleaf [15] = experiment: Test Example 4: herbicidal effect by soil treatment (Table 19, symbol M); type: in vivo, velvetleaf (Abutilon theophrasti); details: amount of applied herbicide 320 g/ha
How it was run: as §2

wild oat [16] = experiment: Test Example 4: herbicidal effect by soil treatment (Table 19, symbol I); type: in vivo, wild oat (Avena fatua); details: amount of applied herbicide 320 g/ha
How it was run: as §2

chickweed [17] = experiment: Test Example 5: herbicidal effect by foliage application, plastic box (Table 20, symbol P); type: in vivo, common chickweed (Stellaria media); details: foliage application, 320 g/ha, evaluated three weeks after application
How it was run: as §3

blackgrass [18] = experiment: Test Example 4: herbicidal effect by soil treatment (Table 19, symbol J); type: in vivo, blackgrass (Alopecurus myosuroides); details: amount of applied herbicide 320 g/ha
How it was run: as §2

wild oat [19] = experiment: Test Example 5: herbicidal effect by foliage application, plastic box (Table 20, symbol I); type: in vivo, wild oat (Avena fatua); details: foliage application, 320 g/ha, evaluated three weeks after application
How it was run: as §3

Japanese bulrush = experiment: Test Example 1: herbicidal activity, application before weed generation under submerged conditions (Table 16, symbol B); type: in vivo, Japanese bulrush (Schoenoplectus juncoides); details: 320 g/ha applied herbicide
How it was run: as §4

redroot pigweed [20] = experiment: Test Example 4: herbicidal effect by soil treatment (Table 19, symbol N); type: in vivo, redroot pigweed (Amaranthus retroflexus); details: amount of applied herbicide 320 g/ha
How it was run: as §2

windgrass [21] = experiment: Test Example 5: herbicidal effect by foliage application, plastic box (Table 20, symbol L); type: in vivo, windgrass (Apera spica-venti); details: foliage application, 320 g/ha, evaluated three weeks after application
How it was run: as §3

green foxtail [22] = experiment: Test Example 4: herbicidal effect by soil treatment (Table 19, symbol G); type: in vivo, green foxtail (Setaria viridis); details: amount of applied herbicide 320 g/ha
How it was run: as §2

barnyard grass [23] = experiment: Test Example 5: herbicidal effect by foliage application, plastic box (Table 20, symbol H); type: in vivo, barnyard grass (Echinochloa crus-galli); details: foliage application, 320 g/ha, evaluated three weeks after application
How it was run: as §3

oval-leafed pondweed = experiment: Test Example 1: herbicidal activity, application before weed generation under submerged conditions (Table 16, symbol C); type: in vivo, oval-leafed pondweed (Monochoria vaginalis); details: 320 g/ha applied herbicide
How it was run: as §4

windgrass [24] = experiment: Test Example 4: herbicidal effect by soil treatment (Table 19, symbol L); type: in vivo, windgrass (Apera spica-venti); details: amount of applied herbicide 320 g/ha
How it was run: as §2

barnyard grass [25] = experiment: Test Example 4: herbicidal effect by soil treatment (Table 19, symbol H); type: in vivo, barnyard grass (Echinochloa crus-galli); details: amount of applied herbicide 320 g/ha
How it was run: as §2

Structure (SMILES)	herbicidal effect on D: Chinese sprangletop (Chinese sprangletop)	O: lambsquarters, herbicidal effect rating (lambsquarters [1])	herbicidal effect on H: barnyard grass (barnyard grass [2])	herbicidal effect on E: rice flat sedge (rice flat sedge)	herbicidal effect on K: Italian ryegrass (Italian ryegrass [3])	herbicidal effect on J: blackgrass (blackgrass [4])	P: chickweed, herbicidal effect rating (chickweed [5])	herbicidal effect on N: redroot pigweed (redroot pigweed [6])	Herbicidal effect on A: late watergrass (grade 0-5) (late watergrass)	herbicidal effect on M: velvetleaf (velvetleaf [7])	F: southern crabgrass, herbicidal effect rating (southern crabgrass [8])	herbicidal effect on O: lambsquarters (lambsquarters [9])	K: Italian ryegrass, herbicidal effect rating (Italian ryegrass [10])	herbicidal effect on G: green foxtail (green foxtail [11])	herbicidal effect on R: persian speedwell (persian speedwell [12])	herbicidal effect on F: southern crabgrass (southern crabgrass [13])	R: persian speedwell, herbicidal effect rating (persian speedwell [14])	M: velvetleaf, herbicidal effect rating (velvetleaf [15])	I: wild oat, herbicidal effect rating (wild oat [16])	herbicidal effect on P: chickweed (chickweed [17])	also measured
CCCCOc1ccc(-c2sc3ccc(Cl)cc3c2-c2c(O)c(C)nn(C)c2=O)cc1 [2-109]	2 (Herbicidal rate of 20% or more and less than 40%)	2 (Herbicidal rate of 20% or more and less than 40%)	4 (Herbicidal rate of 70% or more and less than 90%)	2 (Herbicidal rate of 20% or more and less than 40%)	0 (Herbicidal rate of 5% or less (almost no effect))	0 (Herbicidal rate of 5% or less (almost no effect))	0 (Herbicidal rate of 5% or less (almost no effect))	5 (Herbicidal rate of 90% or more (almost completely withered))	0 (Herbicidal rate of 5% or less (almost no effect))	4 (Herbicidal rate of 70% or more and less than 90%)	0 (Herbicidal rate of 5% or less (almost no effect))	4 (Herbicidal rate of 70% or more and less than 90%)	0 (Herbicidal rate of 5% or less (almost no effect))	1 (Herbicidal rate of 5% or more and less than 20%)	5 (Herbicidal rate of 90% or more (almost completely withered))	0 (Herbicidal rate of 5% or less (almost no effect))	3 (Herbicidal rate of 40% or more and less than 70%)	1 (Herbicidal rate of 5% or more and less than 20%)	0 (Herbicidal rate of 5% or less (almost no effect))	4 (Herbicidal rate of 70% or more and less than 90%)	J: blackgrass, herbicidal effect rating (blackgrass [18]): 0 (Herbicidal rate of 5% or less (almost no effect)); herbicidal effect on I: wild oat (wild oat [19]): 0 (Herbicidal rate of 5% or less (almost no effect)); Herbicidal effect on B: Japanese bulrush (grade 0-5) (Japanese bulrush): 3 (Herbicidal rate of 40% or more and less than 70%); N: redroot pigweed, herbicidal effect rating (redroot pigweed [20]): 4 (Herbicidal rate of 70% or more and less than 90%); herbicidal effect on L: windgrass (windgrass [21]): 0 (Herbicidal rate of 5% or less (almost no effect)); G: green foxtail, herbicidal effect rating (green foxtail [22]): 0 (Herbicidal rate of 5% or less (almost no effect)); herbicidal effect on H: barnyard grass (barnyard grass [23]): 4 (Herbicidal rate of 70% or more and less than 90%); Herbicidal effect on C: oval-leafed pondweed (grade 0-5) (oval-leafed pondweed): 0 (Herbicidal rate of 5% or less (almost no effect)); L: windgrass, herbicidal effect rating (windgrass [24]): 0 (Herbicidal rate of 5% or less (almost no effect)); H: barnyard grass, herbicidal effect rating (barnyard grass [25]): 0 (Herbicidal rate of 5% or less (almost no effect))
COc1ccccc1-c1sc2ccc(I)cc2c1-c1c(O)c(C)nn(C)c1=O [2-130]	0 (Herbicidal rate of 5% or less (almost no effect))	3 (Herbicidal rate of 40% or more and less than 70%)	3 (Herbicidal rate of 40% or more and less than 70%)	4 (Herbicidal rate of 70% or more and less than 90%)	0 (Herbicidal rate of 5% or less (almost no effect))	0 (Herbicidal rate of 5% or less (almost no effect))	0 (Herbicidal rate of 5% or less (almost no effect))	5 (Herbicidal rate of 90% or more (almost completely withered))	0 (Herbicidal rate of 5% or less (almost no effect))	3 (Herbicidal rate of 40% or more and less than 70%)	0 (Herbicidal rate of 5% or less (almost no effect))	2 (Herbicidal rate of 20% or more and less than 40%)	0 (Herbicidal rate of 5% or less (almost no effect))	0 (Herbicidal rate of 5% or less (almost no effect))	3 (Herbicidal rate of 40% or more and less than 70%)	0 (Herbicidal rate of 5% or less (almost no effect))	0 (Herbicidal rate of 5% or less (almost no effect))	0 (Herbicidal rate of 5% or less (almost no effect))	0 (Herbicidal rate of 5% or less (almost no effect))	5 (Herbicidal rate of 90% or more (almost completely withered))	J: blackgrass, herbicidal effect rating (blackgrass [18]): 0 (Herbicidal rate of 5% or less (almost no effect)); herbicidal effect on I: wild oat (wild oat [19]): 0 (Herbicidal rate of 5% or less (almost no effect)); Herbicidal effect on B: Japanese bulrush (grade 0-5) (Japanese bulrush): 3 (Herbicidal rate of 40% or more and less than 70%); N: redroot pigweed, herbicidal effect rating (redroot pigweed [20]): 2 (Herbicidal rate of 20% or more and less than 40%); herbicidal effect on L: windgrass (windgrass [21]): 0 (Herbicidal rate of 5% or less (almost no effect)); G: green foxtail, herbicidal effect rating (green foxtail [22]): 0 (Herbicidal rate of 5% or less (almost no effect)); herbicidal effect on H: barnyard grass (barnyard grass [23]): 0 (Herbicidal rate of 5% or less (almost no effect)); Herbicidal effect on C: oval-leafed pondweed (grade 0-5) (oval-leafed pondweed): 0 (Herbicidal rate of 5% or less (almost no effect)); L: windgrass, herbicidal effect rating (windgrass [24]): 0 (Herbicidal rate of 5% or less (almost no effect)); H: barnyard grass, herbicidal effect rating (barnyard grass [25]): 0 (Herbicidal rate of 5% or less (almost no effect))
